From US10738062B2, “Chromane-substituted tetracyclic compounds and uses thereof for the treatment of viral diseases” (Merck Sharp & Dohme Corp., priority 2016, dated 2020)
Like-named read-outs stand apart in the source and are kept apart here.

Legend:
Set-up in all cases: species or system Hepatitis C virus
Settings in all cases: replicon RNA by real time PCR, day 3
HCV replicon 1A = experiment: Cell-based HCV replicon assay (Replicon Assay A), replicon 1A
Description: (§1) To measure cell-based anti-HCV activity of compounds of the present invention, two complimentary assays were employed using various replicons. In the first assay (“Replicon Assay A”), replicon cells were seeded at 2000 cells/well in 384-well 384-well flat bottom tissue culture treated clear bottom plate (Corning 3707) in the presence of the test compound. Various concentrations of test compound, typically in 10 serial dilutions, were added to the assay mixture, with the starting concentration ranging from 333.3 nM to 1.667 nM. The final concentration of DMSO was 0.5%. Fetal bovine serum was 5%, in the assay media. Cells were harvested on day 3 by removing media and washing the cells with a suitable wash buffer. The cells were lysed with the addition of 1× Qiagen lysis buffer (Cat #1062731). The replicon RNA level was measured using real time PCR (TaqMan® EZ RT-PCR, Applied Biosystems 403028) with the following primers and probes: […]
(§2) Cyclophilin RNA was used as endogenous control and was amplified in the same reaction as NS5B (multiplex PCR). The real-time RT-PCR reactions were run on ABI PRISM 7900HT Sequence Detection System using the following program: 50° C. for 2 minutes, 60° C. for 30 minutes, 95° C. for 5 minutes, 40 cycles of 94° C. for 20 sec, 55° C. for 1 minutes.
(§3) The amount of HCV replicon RNA per cell was quantified using a linear regression curve for a known nanogram (ng) amount of HCV replicon total RNA. This was established by plotting the Cycle Threshold values (Ct) from the Neo probe and primer set versus the log (ng) for each HCV replicon total RNA standard. The amount of HCV RNA for each replicon sample was calculated by taking the sample's Ct value, minus the line intercept, divided by the slope of the line. Similarly, the amount of Cyclophilin mRNA per cell was also quantified using a linear regression curve for a known nanogram (ng) amount of HCV replicon total RNA. Again, this was established by plotting the Cycle Threshold values (Ct) from the Cyclophilin probe and primer set versus the log (ng) for each HCV replicon total RNA standard.
(§4) The real-time RT-PCR reactions were run on ABI PRISM 7900HT or Viia7 Sequence Detection System using the following program: 48° C. for 30 minutes, 95° C. for 10 minutes, 40 cycles of 95° C. for 15 sec, 60° C. for 1 minutes. The 50% effective concentration (EC50) was the drug concentration necessary to achieve an increase in the cycle threshold (CT) of 1 over the projected baseline CT.
(§5) Data was obtained for various compounds of the present invention using the methods described in the Example above, and is presented in the table immediately below. EC50 data for replicons 1A, 1AY93H and 2B were obtained using Replicon Assay A and EC50 data for replicon 1B was obtained using Replicon Assay B.

HCV replicon 2B = experiment: Cell-based HCV replicon assay (Replicon Assay A), replicon 2B
Description: as §1, §2, §3, §4, §5

HCV replicon 1A Y93H = experiment: Cell-based HCV replicon assay (Replicon Assay A), replicon 1AY93H
Description: as §1, §2, §3, §4, §5

[1] = read-out: EC50 replicon 2B, Replicon Assay A
[2] = read-out: EC50 replicon 1A Y93H, Replicon Assay A
[3] = Hepatitis C virus, 72 h, read-out: EC50 replicon 2B, Replicon Assay A

| Compound | EC50 (HCV replicon 1A) [nM] | EC50 (HCV replicon 2B; [1]) [nM] | EC50 (HCV replicon 1A Y93H; [2]) [nM] | EC50 (HCV replicon 1A; Hepatitis C virus, 72 h) [nM] | EC50 (HCV replicon 2B; [3]) [nM] | EC50 (HCV replicon 1A Y93H; Hepatitis C virus, 72 h, read-out: EC50 replicon 1A Y93H, Replicon Assay A) [nM] |
| --- | --- | --- | --- | --- | --- | --- |
| COC(=O)N[C@H](C(=O)N1CCC[C@H]1c1ncc(-c2cc(F)c3c(c2)OC(c2ccc4c(c2)CC2CC2(C)O4)n2c-3cc3cc(-c4cnc([C@@H]5CCCN5C(=O)[C@@H](NC(=O)OC)C(C)C)[nH]4)ccc32)[nH]1)C(C)C (single isomer, unassigned) [Compound 26] | 0.0028 | 1.41 | 0.344 | – | – | – |
| COC(=O)N[C@H](C(=O)N1CCC[C@H]1c1ncc(-c2cc(F)c3c(c2)OC(c2ccc4c(c2)OC(C)(C)C4)n2c-3cc3cc(-c4cnc([C@@H]5CCCN5C(=O)[C@@H](NC(=O)OC)C(C)C)[nH]4)ccc32)[nH]1)C(C)C (single isomer, unassigned) [Compound 27] | – | 1.48 | 1.08 | 0.0014 | – | – |
| COC(=O)N[C@H](C(=O)N1CCC[C@H]1c1ncc(-c2cc(F)c3c(c2)OC(c2ccc4c(c2)CCCO4)n2c-3cc3cc(-c4cnc([C@@H]5CCCN5C(=O)[C@@H](NC(=O)OC)C5CCOCC5)[nH]4)ccc32)[nH]1)C(C)C (single isomer, unassigned) [Compound 36] | 0.0021 | 0.416 | 0.426 | – | – | – |
| COC(=O)N[C@H](C(=O)N1CCC[C@H]1c1ncc(-c2cc(F)c3c(c2)OC(c2ccc4c(c2)CCCO4)n2c-3cc3cc(-c4cnc([C@@H]5C[C@H]6C[C@H]6N5C(=O)[C@@H](NC(=O)OC)C(C)C)[nH]4)ccc32)[nH]1)C(C)C (single isomer, unassigned) [Compound 45] | 0.001 | – | 0.12 | – | 5.28 | – |
| COC(=O)N[C@H](C(=O)N1CCC[C@H]1c1ncc(-c2cc(F)c3c(c2)OC(c2ccc4c(c2)CCCO4)n2c-3cc3cc(-c4cnc([C@@H]5C[C@H]6C[C@H]6N5C(=O)[C@@H](NC(=O)OC)C(C)C)[nH]4)ccc32)[nH]1)C(C)C (single isomer, unassigned) [Compound 46] | 0.0026 | 7.71 | 4.13 | – | – | – |
| COC(=O)N[C@H](C(=O)N1CCC[C@H]1c1ncc(-c2ccc3c(c2)OC(c2ccc4c(c2)OCCC4)n2c-3cc3cc(-c4cnc([C@@H]5C[C@H]6C[C@H]6N5C(=O)[C@@H](NC(=O)OC)C(C)C)[nH]4)ccc32)[nH]1)C(C)C (single isomer, unassigned) [Compound 49] | – | 0.817 | 2.44 | 0.0016 | – | – |
| COC(=O)NC(C(=O)N1CCC[C@H]1c1ncc(-c2ccc3c(c2)cc2n3C(c3ccc4c(c3)CCC(C)O4)Oc3cc(-c4cnc([C@@H]5CCCN5C(=O)[C@@H](NC(=O)OC)C(C)C)[nH]4)cc(F)c3-2)[nH]1)C1C[C@@H](C)O[C@@H](C)C1 (single isomer, unassigned) [Compound 55] | – | 1.26 | 1.86 | 0.0019 | – | – |
| COC(=O)NC(C(=O)N1CCC[C@H]1c1ncc(-c2ccc3c(c2)cc2n3C(c3ccc4c(c3)CCC(C)O4)Oc3cc(-c4cnc([C@@H]5CCCN5C(=O)[C@@H](NC(=O)OC)C(C)C)[nH]4)cc(F)c3-2)[nH]1)C1C[C@@H](C)O[C@@H](C)C1 (single isomer, unassigned) [Compound 56] | 0.0024 | 0.288 | 0.114 | – | – | – |
| COC(=O)NC(C(=O)N1CCC[C@H]1c1ncc(-c2ccc3c(c2)cc2n3C(c3ccc4c(c3)OC(C)CC4)Oc3cc(-c4cnc([C@@H]5CCCN5C(=O)[C@@H](NC(=O)OC)C(C)C)[nH]4)cc(F)c3-2)[nH]1)C1C[C@@H](C)O[C@@H](C)C1 (single isomer, unassigned) [Compound 57] | – | 0.33 | 0.685 | 0.002 | – | – |
| COC(=O)NC(C(=O)N1CCC[C@H]1c1ncc(-c2ccc3c(c2)cc2n3C(c3ccc4c(c3)OC(C)CC4)Oc3cc(-c4cnc([C@@H]5CCCN5C(=O)[C@@H](NC(=O)OC)C(C)C)[nH]4)cc(F)c3-2)[nH]1)C1C[C@@H](C)O[C@@H](C)C1 (single isomer, unassigned) [Compound 58] | 0.0022 | 0.403 | 1.09 | – | – | – |
| COC(=O)NC(C(=O)N1CCC[C@H]1c1ncc(-c2ccc3c(c2)cc2n3C(c3ccc4c(c3)OC(C)CC4)Oc3cc(-c4cnc([C@@H]5CCCN5C(=O)[C@@H](NC(=O)OC)C(C)C)[nH]4)cc(F)c3-2)[nH]1)C1CCOC(C)(C)C1 (single isomer, unassigned) [Compound 61] | – | 0.215 | 1.49 | 0.0023 | – | – |
| COC(=O)NC(C(=O)N1CCC[C@H]1c1ncc(-c2ccc3c(c2)cc2n3C(c3ccc4c(c3)OC(C)CC4)Oc3cc(-c4cnc([C@@H]5CCCN5C(=O)[C@@H](NC(=O)OC)C(C)C)[nH]4)cc(F)c3-2)[nH]1)C1CCOC(C)(C)C1 (single isomer, unassigned) [Compound 62] | 0.0019 | 0.253 | 0.516 | – | – | – |
| COC(=O)NC(C(=O)N1[C@@H]2C[C@@H]2C[C@H]1c1ncc(-c2ccc3c(c2)cc2n3C(c3ccc4c(c3)CCCO4)Oc3cc(-c4cnc([C@@H]5CCCN5C(=O)[C@@H](NC(=O)OC)C(C)C)[nH]4)cc(F)c3-2)[nH]1)C1C[C@@H](C)O[C@@H](C)C1 (single isomer, unassigned) [Compound 66] | 0.0034 | 2.35 | 0.172 | – | – | – |
| COC(=O)NC(C(=O)N1[C@@H]2C[C@@H]2C[C@H]1c1ncc(-c2ccc3c(c2)cc2n3C(c3ccc4c(c3)OCCC4)Oc3cc(-c4cnc([C@@H]5CCCN5C(=O)[C@@H](NC(=O)OC)C(C)C)[nH]4)cc(F)c3-2)[nH]1)C1C[C@@H](C)O[C@@H](C)C1 (single isomer, unassigned) [Compound 67] | – | 0.607 | 0.391 | 0.0012 | – | – |
| COC(=O)NC(C(=O)N1CCC[C@H]1c1ncc(-c2ccc3c(c2)cc2n3C(c3ccc4c(c3)CCCO4)Oc3cc(-c4cnc([C@@H]5CCCN5C(=O)[C@@H](NC(=O)OC)C(C)C)[nH]4)cc(F)c3-2)[nH]1)C1C[C@@H](C)O[C@@H](C)C1 (single isomer, unassigned) [Compound 73] | – | 0.791 | 1.36 | 0.0031 | – | – |
| COC(=O)NC(C(=O)N1CCC[C@H]1c1ncc(-c2ccc3c(c2)cc2n3C(c3ccc4c(c3)CCCO4)Oc3cc(-c4cnc([C@@H]5CCCN5C(=O)[C@@H](NC(=O)OC)C(C)C)[nH]4)cc(F)c3-2)[nH]1)C1C[C@@H](C)O[C@@H](C)C1 (single isomer, unassigned) [Compound 74] | 0.0025 | 0.234 | 0.091 | – | – | – |
| COC(=O)NC(C(=O)N1CCC[C@H]1c1ncc(-c2ccc3c(c2)cc2n3C(c3ccc4c(c3)OCCC4)Oc3cc(-c4cnc([C@@H]5CCCN5C(=O)[C@@H](NC(=O)OC)C(C)C)[nH]4)cc(F)c3-2)[nH]1)C1C[C@@H](C)O[C@@H](C)C1 (single isomer, unassigned) [Compound 75] | – | 0.296 | 1.27 | 0.0018 | – | – |
| COC(=O)NC(C(=O)N1CCC[C@H]1c1ncc(-c2ccc3c(c2)cc2n3C(c3ccc4c(c3)OCCC4)Oc3cc(-c4cnc([C@@H]5CCCN5C(=O)[C@@H](NC(=O)OC)C(C)C)[nH]4)cc(F)c3-2)[nH]1)C1C[C@@H](C)O[C@H](C)C1 (single isomer, unassigned) [Compound 77] | – | 0.099 | 0.496 | 0.0015 | – | – |
| COC(=O)NC(C(=O)N1[C@@H]2C[C@@H]2C[C@H]1c1ncc(-c2ccc3c(c2)cc2n3C(c3ccc4c(c3)OCCC4)Oc3cc(-c4cnc([C@@H]5CCCN5C(=O)[C@@H](NC(=O)OC)C(C)C)[nH]4)cc(F)c3-2)[nH]1)C1CCO[C@H](C)C1 (single isomer, unassigned) [Compound 81] | – | 0.27 | 0.188 | 0.002 | – | – |
| COC(=O)NC(C(=O)N1CCC[C@H]1c1ncc(-c2ccc3c(c2)cc2n3C(c3ccc4c(c3)CCCO4)Oc3cc(-c4cnc([C@@H]5CCCN5C(=O)[C@@H](NC(=O)OC)C(C)C)[nH]4)cc(C)c3-2)[nH]1)C1C[C@@H](C)O[C@@H](C)C1 (single isomer, unassigned) [Compound 83] | – | – | – | 0.0039 | 0.16 | 0.594 |
